Several values for one entry are separate records, joined by “and”; a condition that tells them apart may be missing. Identical values can stand only once.
Assays:
HGPS cells = assay: Nuclear deformation counting in HGPS cells; format: cell-based, human; design: key to Nuclear deformation (rate): fraction of nuclear-deformed cells, relative to DMSO-treated cells; conditions: for Nuclear deformation (rate): 7 days, normalized to DMSO-treated cells; for Nuclear deformation: AG03198
Protocol: Fig. 1 SLC-D011 ameliorates premature aging features of HGPS. A. HEK293 cells were transiently transfected with expression vector encoding wild-type lamin A (WT-LA), lamin A-C661A (LA-C661A), progerin, or progerin-C611A. LA-C661A or progerin-C611A with point mutation in CaaX motif was predicted to be lack of farnesylation, […] that of authentic WT-LA or progerin. GFP-conjugated empty expression vector was used as a negative control. Cells were visualized at 24 h after transfection. B Transient transfection of HEK293 cells with expression vector encoding progerin or […] leads to reduced expression of H3K9me3 (n = 3 independent experiments; two-tailed Student’s t test). C. JH4 derivatives (JH010 and SLC-D011(D011)) inhibit lamin A and progerin interaction. For binding inhibition assay, bead-conjugated lamin A (GST-LA) was incubated with HEK293 cells, transiently transfected with GFP-progerin (PG), and treated with indicated chemicals. Actin was used as a loading control. PPT, co-precipitated materials with recombinant proteins; Sup supernatant. 5 μM of each chemical was used for binding assay. […] H3K9me3 reduction is a well-known marker for premature aged cells. Thus, H3K9me3 expression was evaluated by immunostaining. […] E SLC-D011 obviously suppresses progerin expression. For progerin expression analysis, each chemical was used to treat HGPS cells (AG03198, Coriell Cell Repositories) for 7 days. […] F SLC-D011 reduces the expression of progerin in other HGPS cells (AG11513 and AG11498, Coriell Cell Repositories). Treatment with SLC-D011 (2 μM) for 7 days reduced the expression of progerin and p16/INK4A but induced the expression of H3K9me3. […] G JH4, JH010, and SLC-D011 promote cell proliferation. Cell viability was determined by MTT assay after incubation with chemicals for 7 days (n = 3 independent experiments; two-tailed Student’s t test). H JH4, JH010, and SLC-D011 show similar activity for ameliorating nuclear deformation. After incubation with chemicals for 7 days, cells were stained with progerin and H3K9me3 antibodies (n = 3 independent experiment; two-tailed Student’s t test), **p < 0.001. Data are reported as mean ± SD. “Con” means Dimethyl sulfoxide (DMSO)-treated control. The data are normalized to DMSO-treated cells.
For nuclear deformation cell counting, immunofluorescence staining was performed with lamin A or progerin antibodies. After staining, abnormal nuclear membrane was counted in randomly selected fields and expressed as percentages or actual numbers of total cells counted. Abnormalities of nuclear membrane were determined based on the following: (1) lamin A/C or progerin lining was extruded or engulfed, (2) having at least one bleb, and (3) irregular contour. Counting of cells with nuclear deformation was performed by three independent observers who were blinded to chemical treatment group. To analyze histone H3K9me3 intensity or expression, images were quantified using “color histogram” function of Image J software (National Institute of Health, NIH). Fluorescence intensities were subtracted by background signals.

[1] = test system: normal fibroblasts and HGPS cells; assay: Long-term treatment cell viability (MTT assay) in normal fibroblasts and HGPS cells; format: cell-based
Protocol: To determine the cellular viability, cells were treated with lonafarnib or SLC-D011 for 2 weeks. For MTT assay, cells were incubated with 0.5 mg/ml of 3-(4,5-dimethythiazol-2-yl)-2,5-diphenyl tetrazolium bromide (MTT) solution for 6 hr at 37 °C. After removing MTT solution, the precipitated materials were dissolved in […] DMSO and quantified by measuring the absorbance at 540 nm.
Fig. S12. […] A. SLC-D011, compar ed to lonafarnib, reduces exogenous progerin expression in HEK293 cells. B. Long- t e r m treatment (treated with 2μM ever y ot her day for 2 weeks) with lonafarnib or SLC-D011 was performed for normal fibroblasts and HGPS cells. […]
to determine the cellular viability after treatment with lonafarnib or SLC-D011 (n = 3 independent experiment; two-tailed Student’s t -test), **p < 0.001, *p < 0.05, N.S: not significant. […]

Row | SMILES | Nuclear shape (HGPS cells; HGPS cells) | Cell death on long-term treatment ([1]; 2μM every other day for 2 weeks) | Cell viability ([1]; AG03198, Ave) | Cell viability ([1]; AG03198, individual replicate) | Cell viability ([1]; AG11513, Ave) | Cell viability ([1]; AG11513, individual replicate) | Cell viability ([1]; N9, Ave) | Cell viability ([1]; N9, individual replicate) | Nuclear deformation (rate) (HGPS cells; AG03198, 2uM) | Nuclear deformation (rate) (HGPS cells; AG03198, 2uM, mean) | Nuclear deformation (rate) (HGPS cells; AG03198, 5uM) | Nuclear deformation (rate) (HGPS cells; AG03198, 5uM, mean) | Nuclear deformation (HGPS cells; 0.1μM, Ave) | Nuclear deformation (HGPS cells; 0.1μM, individual replicate) | Nuclear deformation (HGPS cells; 0.2μM, Ave) | Nuclear deformation (HGPS cells; 0.2μM, individual replicate) | Nuclear deformation (HGPS cells; 0.5μM, Ave) | Nuclear deformation (HGPS cells; 0.5μM, individual replicate) | Nuclear deformation (HGPS cells; 1μM, Ave) | Nuclear deformation (HGPS cells; 1μM, individual replicate)
1 | NC(=O)N1CCC(CC(=O)N2CCC([C@H]3c4ncc(Br)cc4CCc4cc(Cl)cc(Br)c43)CC2)CC1 [lonafarnib, reference compound] | induced donut-shaped nuclei | induced cell death in both normal fibroblasts and HGPS cells | 0.5027 ratio | 0.6483 ratio and 0.3112 ratio and 0.5484 ratio | 0.692 ratio | 0.6982 ratio and 0.6988 ratio and 0.6791 ratio | 1.642 ratio | 1.689 ratio and 1.546 ratio and 1.691 ratio | – | – | – | – | – | – | – | – | – | – | – | –
2 | CC1(C)Oc2cc3oc(=O)ccc3cc2C[C@@H]1OC/C=C/c1ccccc1 [SLC-D011] | – | – | 1.64 ratio | 1.6383 ratio and 1.687 ratio and 1.593 ratio | 1.362 ratio | 1.362 ratio and 1.373 ratio and 1.352 ratio | 2.552 ratio | 2.559 ratio and 2.546 ratio and 2.551 ratio | 0.4839 and 0.6786 and 0.4545 and 0.4706 and 0.5 | 0.5146 | 0.4194 and 0.4286 and 0.303 and 0.2353 and 0.3667 and 0.2941 | 0.3412 | 36.4% | 35% and 37% and 40% and 36% and 34% | 33.2% | 33% and 34% and 30% and 36% | 25.8% | 29% and 28% and 27% and 19% and 26% | 21.4% | 23% and 20% and 22% and 19%
3 | CC1(C)Oc2cc3oc(=O)ccc3cc2CC1OC(=O)C=Cc1cccnc1 (stereo not drawn) [JH4] | – | – | – | – | – | – | – | – | 0.7742 and 0.8571 and 0.5758 and 0.6176 and 0.8 and 0.6765 | 0.7169 | 0.5161 and 0.5357 and 0.5455 and 0.4706 and 0.5667 and 0.5294 | 0.5273 | – | – | – | – | – | – | – | –

From publication PMC7782499, “Progerinin, an optimized progerin-lamin A binding inhibitor, ameliorates premature senescence phenotypes of Hutchinson-Gilford progeria syndrome” (Communications Biology, 2021)
